Consider 19 compounds from patent US10787423B2, “Piperazine and piperidine derivatives, their synthesis and use thereof in inhibiting VDAC oligomerization, apoptosis and mitochondria dysfunction” (THE NATIONAL INSTITUTE FOR BIOTECHNOLOGY IN THE NEGEV LTD., priority 2015, dated 2020).

The assay deals with T1, rVDAC1-GFP2 / rVDAC1-Rluc in T-REx-293 cells (Rattus norvegicus, UniProt Q9Z2L0).
T1 construct: The rVDAC1 gene was cloned into BamHI and HindIII sites of the BRET2 plasmids (N2 variants); expressed in transfected cells; host or cells: T-REx-293 cells stably expressing hVDAC1-shRNA (T-REx-pS10)
T1 sequence (Q9Z2L0 with tags, fused parts or gaps limits assumed): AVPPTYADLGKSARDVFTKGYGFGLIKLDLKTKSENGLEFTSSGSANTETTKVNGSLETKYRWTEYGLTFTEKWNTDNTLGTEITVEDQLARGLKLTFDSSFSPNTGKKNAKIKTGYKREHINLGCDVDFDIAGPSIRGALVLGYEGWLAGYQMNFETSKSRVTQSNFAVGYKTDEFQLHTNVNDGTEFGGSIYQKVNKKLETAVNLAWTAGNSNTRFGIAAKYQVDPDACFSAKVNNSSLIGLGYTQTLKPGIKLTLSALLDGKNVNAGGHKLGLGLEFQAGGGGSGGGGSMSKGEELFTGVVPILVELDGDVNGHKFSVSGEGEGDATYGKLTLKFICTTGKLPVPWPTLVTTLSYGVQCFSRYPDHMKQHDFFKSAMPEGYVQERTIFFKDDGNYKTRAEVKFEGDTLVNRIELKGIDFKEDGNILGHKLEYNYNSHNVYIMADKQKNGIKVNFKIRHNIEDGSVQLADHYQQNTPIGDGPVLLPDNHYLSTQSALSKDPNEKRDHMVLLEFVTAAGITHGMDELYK
In words: BRET2 assay of VDAC1 oligomerization induced by apoptosis inducers (Method A). The assay is classed as cell-based. The note with it: test compound 10 μM, 1 h pre-incubation; for BRET2, % of inhibition, As2O3: As2O3 60 μM (3 h); for BRET2, % of inhibition, STS: STS 1 μM (3 h); for BRET2, % of inhibition, Selenite: selenite 30 μM (3 h). The source says:
BRET2 screening may be carried out as described in the art ([…] et al., (2010) Oligomerization of the mitochondrial protein voltage-dependent anion channel is coupled to the induction of apoptosis. Mol Cell Biol 30, 5698-5709). Plasmids encoding the fusion proteins rat(r)VDAC1-GFP2 and rVDAC1-luc were constructed using the BRET2 plasmids (Perkin Elmer, Waltham, Mass.). The rVDAC1 gene was cloned into BamHI and HindIII sites of the BRET2 plasmids (N2 variants) and amplified using the forward primer [NT] and the reverse primer [NT]. […] The cells were transfected using calcium phosphate method. Transfections were carried out with 0.2 μg of a plasmid coding for rVDAC1-Rluc and with 0.8 μg of a plasmid coding for rVDAC1-GFP2. As a negative control, cells were transfected with plasmids encoding for rVDAC1-Rluc (0.2 μg DNA) and GFP2 (0.8 μg). In another control (control cells), cells were also transfected with a plasmid encoding for rVDAC1-luc (0.2 μg) and plasmid pcDNA4/TO (0.8 μg). The BRET2 signal represents the ratio of the GFP2 fluorescence, measured at its emission wavelength (510 nm), over the light intensity (luminescence) emitted at 395 nm. All measurements were performed using the Infinite 200 ELISA reader (Tecan). BRET2 signals were defined as GFP2/Rluc intensity ratio and calculated as follows: DNA encoding fusion proteins rVDAC1-Rluc (in which RLuc was connected to rVDAC1 at the C terminal position through a linker (GGGS)) and rVDAC1-GFP2 (in which the GFP2 was fused to the rVDAC1 C terminus) was cloned into BRET2 vectors. rVDAC1-GFP2 and rVDAC1-Rluc were expressed in T-REx-293 cells stably expressing shRNA-hVDAC1 and a low level of endogenous hVDAC1 (referred to as T-REx-pS10 cells) hVDAC1-shRNA, being specific to human VDAC1, allowed the expression of rVDAC1 and decreased the participation of endogenous hVDAC1 in oligomerization, thereby enhancing the BRET2 signal. rVDAC1-GFP2 and rVDAC1-Rluc expression levels were correlated with the amount of plasmids used. […] Following incubation, cells were harvested using trypsin, washed twice with PBS by centrifugation at 1000×g, 5 min, resuspended in 200 μl of PBS and divided between two wells of a 96-well clear-bottom plate (Grenier). […] The screening was conducted using BRET2 assay as described above. […] After treatment, the medium was removed and assayed for BRET2 signals as described above. Liquid handling was done with the Tecan (Männedorf, Switzerland) Freedom 150 Robotic & MCA Liquid Handling System, while luciferase luminescence and fluorescence readings were obtained a robot-integrated Tecan Infinite M1000 reader. Method A was used for screening of VDAC1 oligomerization inhibitors. […] Table 2 provides a summary of BRET2-based screen results of the anti-VDAC1 oligomerization activity of compounds from the NCI library. Results are presented as percent inhibition of the BRET2 signal induced by the indicated pro-apoptotic agent.
A general note: Bioluminescence resonance energy transfer reports proximity on the nanometre scale.

As for `CCCOc1nc2c(c(=O)n(C)c(=O)n2C)n1C` [NSC 8816], the “BRET2, % of inhibition, As2O3” value was determined as 49.6%; the “BRET2, % of inhibition, STS” value worked out at 0%; the “BRET2, % of inhibition, Selenite” value was 20.1%.
For `COc1ccc(/C=C2/CCOC2=O)cc1` [NSC 10428] the same measures were 96.4%, 38.2% and 75.7%.
For `CCOC(=O)c1[nH]c(CO)c(C(=O)OCC)c1C` [NSC 10768] the same measures were 52%, 0% and 9.6%.
In the same order, the values of `Oc1ccc(Cc2ccc(Cl)cc2)c(O)c1` [NSC 11150] are 95.2%, 11.6% and 67%.
For the compound `CCOC(=O)N1CCN(Cc2c(O)ccc3ccccc23)CC1` [NSC 12262], the “BRET2, % of inhibition, As2O3” value was 81.5%; the “BRET2, % of inhibition, STS” value is recorded as 0%; the “BRET2, % of inhibition, Selenite” value was 67.4%.
In the same order, the values of `O=C(/C=C/c1ccccc1Cl)c1ccc(O)cc1` [NSC 13151] are 67%, 0% and 0%.
In the same order, the values of `Nc1ccc(C(=O)Nc2cccc(N)c2)cc1` [NSC 15362] are 98%, 39.7% and 41%.
For `Nc1ccc(NC(=O)Nc2ccc(N)cc2)cc1` [NSC 15364] the same measures were 85.4%, 40.9% and 75.9%.
Turning to `O=C(O)c1ccc(O)c(O)c1` [NSC 16631], the “BRET2, % of inhibition, As2O3” value is reported as 0%; the “BRET2, % of inhibition, STS” value came out at 30.5%; the “BRET2, % of inhibition, Selenite” value is 41.5%.
For `Nc1ncnc2c1cnn2C1CCCCC1` [NSC 19115] the same measures were 64.2%, 36.4% and 62%.
For `S=c1nc[nH]c2c1ncn2C1CCCC1` [NSC 19487] the same measures were 88.8%, 32.6% and 68.6%.
In the same order, the values of `O=[N+]([O-])c1cccc(/C=C/c2ccccn2)c1` [NSC 19637] are 76.2%, 0% and 61.8%.
As to `CC(C)NC(=O)c1ccc(C(C)C)cc1` [NSC 20045], the “BRET2, % of inhibition, As2O3” value is given as 88%; the “BRET2, % of inhibition, STS” value stood at 0%; the “BRET2, % of inhibition, Selenite” value was 77.4%.
In the same order, the values of `Cc1ccc(-n2nnnc2-c2cccnc2)cc1` [NSC 23247] are 97.3%, 0% and 52.1%.
In the case of `CCN1CCc2ccccc2C1` [NSC 28837], the “BRET2, % of inhibition, As2O3” value came to 85.2%; the “BRET2, % of inhibition, STS” value came to 0.3%; the “BRET2, % of inhibition, Selenite” value was 48.3%.
In the same order, the values of `CCOc1ccc(Nc2c3ccccc3nc3ccccc23)cc1` [NSC 30205] are 62.7%, 0% and 0%.
For `CC(C)COC(=O)NC1c2ccccc2Oc2ccccc21` [NSC 31069] the same measures were 74.9%, 0% and 0%.
In the same order, the values of `COc1c(NC(C)=O)c2ccccc2c2ccccc12` [NSC 31698] are 51.3%, 0% and 2.1%.
As for `CCOC(=O)Nc1ccc(C(=O)/C=C/c2ccccc2)cc1` [NSC 31703], the “BRET2, % of inhibition, As2O3” value stood at 56.7%; the “BRET2, % of inhibition, STS” value came to 16.6%; the “BRET2, % of inhibition, Selenite” value is listed as 33.3%.
